Molecules are shown by their SMILES.

The subject of the first data set is histone deacetylase (HDAC). Put plainly: cellular acetylation assay (acetylation of histones in PC3 cells, ELISA). The data set is classed as cell-based. The following applies: PC3 human prostate carcinoma cells; compound 1 μM; 24 h incubation; ELISA with antibodies against acetylated histone H3 or H4. Here is the method:
Therein acetylation of histones is monitored in PC3 cells. High acetylation correlates with inhibition of histone deacetylase by compounds. Cell viability is monitored in parallel to estimate the cytotoxicity of compounds.
PC3 cells, a human prostate carcinoma cell line, are seeded as 1800 cells per well of a 384-well microtiterplate in RPMI 1640 (including 5% FCS, 2 mM glutamine and pen/strep).
After 48 h at 37° C. pre-diluted compounds are added to a final concentration of 1 uM. Compounds are pre-diluted in dimethyl sulfoxide (DMSO) resulting in a final concentration of DMSO of 0.5% per well.
After 24 h incubation cell viability is determined by adding cell proliferation reagent WST-1 (Roche Molecular Biochemicals). Another 60 min later the optical density (OD) is measured (450 nm versus 690 nm).
After measurement the cell layer is prepared for the ELISA reaction. Medium is aspirated and cells are fixed in ethanol at −20° C. for 60 min. After washing with PBS/Tween the blocking solution (PBS/5% FCS/Tween) is added and the cell layer is washed again. Antibodies against acetylated histone H3 or H4 (rabbit polyklonal IgG, Upstate Biotechnologie) are added at a dilution of 1:200 for 60 min at 37° C. As a second antibody goat anti rabbit IgG (H+L) humanIgG adsorbed-HRP conjugate (Dako) is used (1:2000 diluted). Cells are washed 3 times and the peroxidase substrate ABTS is allowed to react for 30–60 min at 37° C. The OD is measured at 405 nm.
The percentage of acetylation is calculated after substraction of blank O.D.s: […]
(In general: In an ELISA, binding on a coated surface is turned into a signal by an enzyme label.)
In the case of `CC(=O)Nc1ccc(C(=O)Nc2ccccc2N)cc1` [4-acetylamino-N-(2-amino-phenyl)-benzamide, reference compound], the “cell acetylation (PC3, 1 μM) [% of control]” value is given as 152 % of control.

Regarding `CN(C)CCCOc1ccc2sc(C(=O)Nc3ccccc3N)cc2c1` [Example 2, 5-(3-Dimethylamino-propoxy)-benzo[b]thiophene-2-carboxylic acid (2-amino-phenyl)-amide], the “cell acetylation (PC3, 1 μM) [% of control]” value is 209 % of control.

For the molecule `CC(C)N(CCOc1ccc2sc(C(=O)Nc3ccccc3N)cc2c1)C(C)C` [Example 3, 5-(2-Diisopropylamino-ethoxy)-benzo[b]thiophene-2-carboxylic acid (2-amino-phenyl)-amide], the “cell acetylation (PC3, 1 μM) [% of control]” value is 172 % of control.

For `Nc1ccccc1NC(=O)c1cc2cc(OCCO)ccc2s1` [Example 16, 5-(2-Hydroxy-ethoxy)-benzo[b]thiophene-2-carboxylic acid (2-amino-phenyl)-amide], the “cell acetylation (PC3, 1 μM) [% of control]” value is 156 % of control.

Consider `Nc1ccccc1NC(=O)c1cc2cc(CCO)ccc2o1` [Example 24, 5-(2-Hydroxy-ethyl)-benzofuran-2-carboxylic acid (2-amino-phenyl)-amide], for which the “cell acetylation (PC3, 1 μM) [% of control]” value was 157 % of control.

Tested on in another data set: not given
Assay: not given
Conditions: not given
Take `Nc1ccccc1NC(=O)c1cc2cc(OCCO)ccc2s1` [Example 16, 5-(2-Hydroxy-ethoxy)-benzo[b]thiophene-2-carboxylic acid (2-amino-phenyl)-amide]: the melting point is 215 to 216 °C.

For orientation: melting point means the temperature, or range, at which the solid turns liquid.

Values taken from patent US7208491B2, “N-monoacylated o-phenylenediamines” (Hoffmann-La Roche Inc., priority 2003, dated 2007).
